Patent US10544133B2, “Heteroaryl substituted pyridyl compounds useful as kinase modulators” (BRISTOL-MYERS SQUIBB COMPANY, priority 2012, dated 2020)
Like-named read-outs stand apart in the source and are kept apart here.

Tested on: TLR2 induced IL-6 in peripheral blood mononuclear cells (PBMCs)
Assay: PBMC TLR2 Induced IL-6 Assay
Assay type: cell-based
Settings: lipoteichoic acid 10 μg/ml 5 h, IL-6 by ELISA
Description: PBMC TLR2 Induced IL-6 Assay
Peripheral blood mononuclear cells (PBMCs) were isolated from human blood containing the anti-coagulant EDTA (2.5 mM) by centrifugation over a FICOLL® gradient. PBMCs (250000 cells/well) were cultured in assay media (RPMI with 10% heat inactivated FCS) with compounds for 30 minutes at 37° C. in a 5% CO2 incubator. Following pretreatment with compounds, cells were stimulated for 5 hours with 10 μg/ml lipoteichoic acid (Invivogen, San Diego, Calif.), a TLR2 agonist. At the end of the culture, plates were centrifuged at 1800 rpm for 10 minutes to pellet the cells. Supernatants were harvested and analyzed for IL-6 levels by ELISA (BD Biosciences, San Jose, Calif.).

[1] = Homo sapiens, PBMC, 5 h, value marked * = EC50, read-out: Cell EC50 (*)

SMILES	EC50 [1] [nM]	also measured
CC(C)(O)[C@H](F)CNC(=O)c1cnc(Nc2ncc(C#N)cc2F)cc1NC1CCCOC1 (some centres unmarked) [Example 98]	–	IC50 (Homo sapiens, PBMC, 5 h, value without asterisk, read-out: Cell IC50): 690 nM
CC(C)Nc1cc(Nc2ncc(C#N)cc2Cl)ncc1C(=O)NC1CCC(C(C)(C)O)CC1 (centres unmarked) [Example 102]	71	–
Cc1cnc(Nc2cc(NC(C)C)c(C(=O)NC[C@@H](F)C(C)(C)O)cn2)c(F)c1 [Example 129]	398	–
CC(C)(O)[C@H](F)CNC(=O)c1cnc(Nc2ncc(C#N)c(N)n2)cc1NC1CC1 [Example 154]	–	EC50 (human PBMCs, value marked * = EC50, read-out: Cell EC50 (*)): 529 nM
CC(C)(O)[C@H](F)CNC(=O)c1cnc(Nc2ncc(C#N)cc2F)cc1NC1COC1 [Example 164]	174	–
